Data reported in a melting point compilation (Tetko et al.; mined from patent text by program, amines drawn as free bases though some values may be those of a salt).

| Structure (SMILES) | melting point [°C] |
| --- | --- |
| CC(C)(C)c1cc(CCC(=O)NN2C(=O)C=CC2=O)cc(C(C)(C)C)c1O | 90 to 94 |
| ONCC1CCCCC1 | 61 to 63 |
| CCc1cc(Cl)c2c(=O)cc(C(=O)O)[nH]c2c1 | 248 to 250 |
| C#CCN(C(=O)CO)c1c(C)nc(N(C)C)nc1C | 128 to 130 |
| CCOC(=O)C1=C(C2CC2)Nc2n[nH]cc2C1c1cccc(C#N)c1Br (configuration not stated) | 168 to 170 |
| CC(=O)OC1C(OC(=O)c2cccc([N+](=O)[O-])c2)C=C(C)C(=O)CC1(C)C (configuration not stated) | 108 to 110 |
| COCCOc1ccccc1S(=O)(=O)NC(=O)Nc1nc(Cl)cc(OC)n1 | 166 to 168 |
| CC#CC(=O)N[C@H]1CC[C@H](CCN2CCN(c3nccc4c3CCO4)CC2)CC1 | 193 |
| CC=C1CCC2C3=CC=C4CC(O[Si](C)(C)C(C)(C)C(C)C)CCC4(C)C3CCC12C (configuration not stated) | 94 to 97 |
| O=C(c1ccc(Nc2ncnc3ccccc23)cc1)N1CCN(c2ncc(Cc3ccccc3)cn2)CC1 | 245 to 247 |
| CCCc1c(OCC(O)COc2ccc3c(=O)cc(C=CC(=O)O)oc3c2CCC)ccc(C(C)=O)c1O (configuration not stated) | 101 to 103 |
| Cc1cc2nc(C)c(=O)[nH]c2cc1C | 306 to 308 |
| C#CC(C)(C)N=C(NC#N)SC | 128 to 130 |
| COc1cccc2c1S(=O)(=O)NC(C1CCCCC1)N2 (configuration not stated) | 221 to 223 |
| CNc1nc(-c2ccc(F)cc2)n(-c2ccc(SC)cc2)c(=O)c1C#N | 219 to 222 |
| Cc1cccc(NC(=O)OCC2CCCCN2C)c1 (configuration not stated) | 73.5 to 75.5 |
| CCCCCCCCCCCCCCCCCCOc1ccc(O)c(C(=O)OC)c1 | 53 to 54 |
| CN1Cc2c(C#N)ncn2-c2cccc(Cl)c2C1=O | 238 to 240 |
| CCc1noc(C)c1-c1[nH]c2ccccc2c1C(=O)CCN(C)C | 146 to 148 |
| COc1ccccc1CNc1ccc2cc(Nc3nc(C)cc(C)n3)ccc2n1 | 158 |
| O=C(Nc1ccc(N2CCN(Cc3ccccc3)CC2)cc1)c1ccccc1-c1ccc(C(F)(F)F)cc1 | 180 |
| N#CCNC(=O)Cc1ccccc1 | 87 to 91 |
| COc1ccc(C(O)CNC(=O)C(N)=O)cc1OC1CCCC1 (configuration not stated) | 180 to 181 |

| Structure (SMILES) | melting point [°C] |
| --- | --- |
| CCc1cc2c(cc1O)CCC1C2CCC2(C)C(CCO[Si](c3ccccc3)(c3ccccc3)C(C)(C)C)CCC12 (configuration not stated) | 134 to 135 |
| CN(C)c1nccc(N2CCN(C=O)CC2)n1 | 116 |
| CCO/N=C(/CC)c1ccc(Cl)c2nc3n(c12)CCCN3c1ccc(Cl)cc1Cl | 140 to 141 |
| O=C(Cc1ccccc1)NC1C(=O)N2C1SC1(CCN(c3ccccc3)CC1)C2C(=O)OCc1ccccc1 (configuration not stated) | 120 to 121 |
| O=C1C=C(NC(=O)C(=O)c2cn(Cc3cccc(Br)c3)c3ccccc23)CO1 | 278 to 280 |
| COc1cc(COc2nn(C)cc2CO)ccc1OCc1nc(-c2ccco2)oc1C | 132 to 133 |
| CCS(CCO)=NS(=O)(=O)c1ccccc1 (configuration not stated) | 75 to 76.5 |
| COC(=O)[C@H](Cc1cccc(O)c1)NC(=O)OC(C)(C)C | 61 to 65 |
| N#Cc1ccccc1CCC(=O)c1c(O)c2cccnc2n(-c2ccccc2)c1=O | 226 to 227 |
| O=c1[nH]c2cc(Cl)ccc2n1C1CCN(CCCC(c2ccc(F)cc2)c2ccc(F)cc2)CC1 | 186 |
| Cc1c(C)c2c(c(C)c1NC=O)CC(C)(C)O2 | 177 to 179 |
| CC(C)(Oc1ccc(Cl)cc1)C(=O)NCCCn1ccnc1 | 83 to 84 |
| OC1(Cc2nc[nH]n2)CCCc2ccccc21 (configuration not stated) | 105 to 108 |
| Cc1ccc(N2N=C3c4cc(CCO)sc4CCC3CC2=O)cc1 (configuration not stated) | 159 to 160 |
| CN(C)CCNc1ccc([N+](=O)[O-])c2sc3ccc(O)cc3c(=O)c12 | > 300 |
| O=C(Nc1ccc(-n2nc(C(F)(F)F)cc2C(F)(F)F)cc1)c1cncc(Br)c1 | 155 to 157 |
| OCC(O)(Cn1cncn1)c1ccc(F)cc1F (configuration not stated) | 99 to 100 |
| CCCOC(N)=C(C#N)C(N)=S | 174 |
| CC(=O)NCC1CC1c1cccn2nc(C)nc12 (configuration not stated) | 116 to 118 |
| CC(=O)NC[C@H]1CN(c2ccc(C3CCN(C(=O)c4ccno4)CC3)c(F)c2)C(=O)O1 | 290 to 292 |
| CCC1(C)CC(=NO)C(C)C(C)(CC)N1OC(C)c1ccccc1 (configuration not stated) | 130 to 145 |
| CCCCCCNC(=O)CSc1nc(Cl)cc(Nc2cccc(C)c2C)n1 | 116 to 118 |
| CC(O)c1cc(Br)c(N)c(CN(C)C)c1 (configuration not stated) | 69 to 72 |

| Structure (SMILES) | melting point [°C] |
| --- | --- |
| O=C(Nc1ccc2oc3c(c2c1)CCCC3)c1ccc([N+](=O)[O-])cc1 | 279 to 280 |
| COc1cc(-c2c(C)noc2C)cc2oc(=O)c(C)c(C)c12 | 145 to 147 |
| NCc1ccccc1C1CCN(c2c(F)c(N)c3c(=O)c(C(=O)O)cn(C4CC4)c3c2F)C1 (configuration not stated) | 164 to 165 |
| C=CC(=O)N(C)CCCCCCCCCCCOc1ccc(C(=O)O)c(C(=O)O)c1 | 95 |
| COc1ccc(/C=C(\C#N)c2ccc(Cl)cc2)cc1OC1CCCC1 | 129 to 137 |
| CN(CCCNC1=CC(=O)c2scnc2C1=O)CCCNC1=CC(=O)c2scnc2C1=O | 223 to 224 |
| c1ccc2c(N3CCNCC3)n[nH]c2c1 | 139 to 150 |
| Cc1nc2c(OCc3c(Cl)ccc(S(=O)(=O)N4CCC[C@H]4C(=O)NCCCNC(=O)c4ccc(C=NN)cc4)c3Cl)cccn2c1Br | 170 |
| Cc1c(C(=O)Nc2ccc(N3CCCN(CCO)CC3)c(C#N)c2)cnn1-c1ccc(F)cc1 | 124 |
| COc1cc(O)c(C(=O)C=Cc2ccc(SC)cc2)c(OC)c1 | 135 |
| COc1cc(Nc2c(C#N)cnc3cc(OCCCN4CCN(C)CC4)c(OC)cc23)c(Cl)cc1Cl | 116 to 120 |
| CC(C)(C)c1cc(C=C2CCN(CCO)C2=O)cc(C(C)(C)C)c1O | 191 |
| CC(C#N)=C1CCN(c2ccc(N3C[C@H](CNC(=O)C(Cl)Cl)OC3=O)cc2F)CC1 | 202 to 204 |
| COc1cc(C(=O)O)ccc1Cc1cn(C(C)C)c2ccc(CCCC(=O)N(C)C)cc12 | 168 to 170 |
| CC(C)(C)OC(=O)NC(CC1CCCCC1)C(O)C(O)C(CC1CCCCC1)NC(=O)OC(C)(C)C (configuration not stated) | 224 to 226 |
| O=C(O)CCSC1c2cccc(O)c2C(=O)c2c(O)cccc21 | 152 to 153 |
| CC(=O)OCC1OC(n2cc(C(Cl)=CI)c(=O)[nH]c2=O)C(OC(C)=O)C1OC(C)=O (configuration not stated) | 85 to 87 |
| COc1ccc(-c2cc(=S)n(Cc3ccccc3)nc2-c2ccc(OC)cc2)cc1 | 135 to 149 |
| O=C(O)CN1C[C@@H](Cc2c[nH]c3ccccc23)N(C(=O)c2cc(C(F)(F)F)cc(C(F)(F)F)c2)CC1=O | > 220 |
| CC(C)(C)C(=O)Nc1nc(O)c2cc(C=CCOC3CCCCO3)cnc2n1 (configuration not stated) | 166 to 167 |
| CSc1nn(-c2c(Cl)cc(C(F)(F)F)cc2Cl)c(N)c1S(=O)(=O)c1cccc(C(F)(F)F)c1 | 201 to 203 |

Further lines, results first:

| melting point [°C] | Structure (SMILES) |
| --- | --- |
| 121 to 123 | NN(Cc1ccccc1)C(=S)Nc1ccccc1 |
| 120 | C[C@H](N)c1ccc(O)cc1 |
| 215 to 217 | CCCn1ccc2c(c1=O)C(c1ccccc1)C(C(=O)OCC)=C(C)N2 (configuration not stated) |
| 43 to 44 | O=c1ccoc2cc(OS(=O)(=O)C(F)(F)F)ccc12 |
| 189 to 190 | Cc1nn(C)c2c1Nc1ccccc1NC2=O |
| 73 to 74 | CCNC(=O)OCCOc1ccc(Oc2cccc(Cl)c2)cc1Cl |
| 83 to 85 | c1ccc(OC2CN(C(c3ccccc3)c3ccccc3)C2)cc1 |
| 148 to 150 | CC(=O)Oc1cccc(-c2nc(=O)n(C(C)C)c3cc(C)ccc23)c1 |
| 188 to 190 | COc1ccc(S(=O)(=O)Nc2cccc(Cl)c2/C=C/c2ccncc2)cc1 |
| 99 | COc1ccc(C(Nc2ccccc2)C(=O)OC(C)(C)C)cc1 (racemic) |
| 209 to 211 | O=C(Nc1cccnc1)c1ccc(OC(F)F)c2oc3ccccc3c12 |
| 43 to 45 | COc1ccnc(-c2cccs2)c1 |
| 202 | Cc1nc(-c2ccccc2)nc(N2CCN(c3ccc(O)cc3)CC2)c1C |
| 111 to 113 | OCC#CC1=Cc2ccccc2Sc2ccc(Cl)cc21 |
| 345 | NS(=O)(=O)c1cccc(NC(=O)c2cnn3ccc(-c4ccc(Cl)cc4)nc23)c1 |
| 285 to 289 | NNC(=O)c1cc2ccncc2c2sc3ccccc3c12 |
| 139 to 142 | Cn1c(-c2cccc(C(F)(F)F)c2)cc(=O)n(-c2ccc(Cl)cc2F)c1=O |
| 73 | CCOC(=O)Cc1ccc(NCc2cc(Br)ccc2OCc2ccccc2)cc1 |

| melting point [°C] | Structure (SMILES) |
| --- | --- |
| 142 to 143 | COc1ccccc1Cc1ccc(=O)[nH]n1 |
| 201 to 202 | CCOC(=O)c1[nH]c2ccc(Cl)cc2c1S(=O)(=O)c1ccccc1 |
| 160 to 162 | COc1ccc(NC(=S)Nc2ccc(NNC=O)c(OC)c2)cc1 |
| 180 to 182 | Fc1ccc(-c2nnc(S)nc2-c2ccc(F)cc2)cc1 |
| 220 to 222 | c1ccc(-c2ccc3c4c([nH]c3c2)CCNCC4)cc1 |
| 106 to 108 | Cc1nc(-c2cc3cc(OCCNC[C@H](O)COc4ccccc4Cl)ccc3o2)no1 |
| 164 to 165 | NC(=O)CNC(=O)c1ccc(-c2cccc3cc(COc4cccc(C(F)(F)F)c4)sc23)cc1 |
| 113 to 114 | Cc1nc(-c2ccncc2)sc1-c1cccnc1 |
| 69 to 72 | Nc1cccc2cccc(S)c12 |
| 134 | COc1cc(C(CBr)(OC)OC)ccc1OS(=O)(=O)c1ccccc1 |
| 101 to 102 | OCc1cccc2nc(-c3ccccc3)sc12 |
| 104 to 105 | OCCc1c(-c2ccccc2)nc(Cl)n2ncnc12 |
| 193 to 199 | CCn1cc(-c2nc(C#N)c(N)nc2-c2ccccc2)ccc1=O |
| 116 to 117 | ClCc1coc(-c2ccc3ccccc3c2)n1 |
| 80.6 | C=Cc1ccc(-c2ccc(OC(C)CCCCCC)cc2)cc1 (configuration not stated) |
| 112 | CN1CCc2cc(CO)sc2C(c2ccccc2)C1 (configuration not stated) |
| 180 to 182 | Nc1nc2ccc(Sc3ccccc3)cc2s1 |
